# Test results published in patent US6046209A (priority 1998, dated 2000).
# How the values were obtained:
# Colon Carcinoma 26 = experiment: Efficacy in mouse tumor model Colon Carcinoma 26; format: in vivo
# Method: (§1) The efficacy of the compounds of the present invention was also tested in vivo using three well-known mouse tumor models: L1210, Lewis Lung, and Colon Carcinoma 26.
# L1210 = experiment: Efficacy in mouse tumor model L1210; format: in vivo
# Method: as §1
# Lewis Lung = experiment: Efficacy in mouse tumor model Lewis Lung; format: in vivo
# Method: as §1
# [1] = test system: topoisomerase I; mouse tumor models; experiment: Overall comparison of topoisomerase I inhibition ability, cytotoxicity and efficacy in mouse tumor models; conditions: results of Table I
# [2] = test system: solid tumor cancers, particularly ovarian cancer and non-small cell lung carcinoma; conditions: humans; cited from earlier work
# topoisomerase II = conditions: cited from earlier work
# [3] = in vivo; cited from earlier work
molecule,measurement,setting,value
CC[C@@]1(O)C(=O)OCc2c1cc1n(c2=O)Cc2cc3ccccc3nc2-1 [Camptothecin],"% Inc. in Lifespan, Colon 26",Colon Carcinoma 26; 4 mg/kg ip,50%
same,"% Inc. in Lifespan, L1210",L1210; 12 mg/kg ip,133%
"CC[C@@]1(O)C(=O)OCc2c1cc1n(c2=O)Cc2cc3c4c(ccc3nc2-1)OC(CN1CCOCC1)C4 (stereo partly drawn) [Formula III, (8S)-8-ethyl-1,2-dihydro-8-hydroxy-2(4-morpholinylmethyl)-11H-furano[3,2-f]-pyrano[3',4':6,7]indolizino[1,2-b]quinoline-9,12(8H,14H)-dione]","% Inc. in Lifespan, Colon 26",Colon Carcinoma 26; 20 mg/kg sc,45%
same,"% Inc. in Lifespan, L1210",L1210; 42 mg/kg ip,350%
same,"% Inc. in Lifespan, Lewis Lung",Lewis Lung; 22 mg/kg ip,> 225%
same,biological activity compared with camptothecin and topotecan,[1],comparable to camptothecin and topotecan
"CC[C@@]1(O)C(=O)OCc2c1cc1n(c2=O)Cc2cc3c4c(ccc3nc2-1)OC(CN(C)C)C4 (stereo partly drawn) [Formula IV, (8S)-2-[(dimethylamino)methyl]-8-ethyl-1,2-dihydro-8-hydroxy-11H-furano[3,2-f]-pyrano[3',4':6,7]indolizino[1,2-b]quinoline-9,12(8H,14H)-dione]","% Inc. in Lifespan, Colon 26",Colon Carcinoma 26; 20 mg/kg sc,32%
same,"% Inc. in Lifespan, L1210",L1210; 15 mg/kg ip,225%
same,"% Inc. in Lifespan, Lewis Lung",Lewis Lung; 9 mg/kg ip,67%
same,biological activity compared with camptothecin and topotecan,[1],comparable to camptothecin and topotecan
"CC[C@@]1(O)C(=O)OCc2c1cc1n(c2=O)Cc2cc3c(CN(C)C)c(O)ccc3nc2-1 [Topotecan, 9-dimethylaminomethyl-10-hydroxycamptothecin]","% Inc. in Lifespan, Colon 26",Colon Carcinoma 26; 20 mg/kg sc,45%
same,efficacy in clinical tests,[2],"efficacy against several solid tumor cancers, particularly ovarian cancer and non-small cell lung carcinoma"
same,"% Inc. in Lifespan, L1210",L1210; 15 mg/kg ip,217%
same,"% Inc. in Lifespan, Lewis Lung",Lewis Lung; 15 mg/kg ip,106%
COc1cccc2c1C(=O)c1c(O)c3c(c(O)c1C2=O)C[C@@](O)(C(=O)CO)C[C@@H]3O[C@H]1C[C@H](N)[C@H](O)[C@H](C)O1 [doxorubicin],effect on topoisomerase II,topoisomerase II,Inhibition of topoisomerase II
COc1cc([C@@H]2c3cc4c(cc3[C@@H](O[C@@H]3O[C@@H]5CO[C@@H](C)O[C@H]5[C@H](O)[C@H]3O)[C@H]3COC(=O)[C@H]23)OCO4)cc(OC)c1O [etoposide],effect on topoisomerase II,topoisomerase II,Inhibition of topoisomerase II
O=C1c2c(O)ccc(O)c2C(=O)c2c(NCCNCCO)ccc(NCCNCCO)c21 [mitoxantrone],effect on topoisomerase II,topoisomerase II,Inhibition of topoisomerase II
"(S)-10-amino-4-ethyl-4-hydroxy-1H-pyrano[3',4':6,7]indolizino[1,2-b]quinoline-3,14(4H,12H)-dione [CPT-11]",toxicity profile,[3],adverse toxicity profile
